Source: PubChem BioAssay (NCI)
“And” between values parts separate entries of the source, which are not always exact repeats. Identical values can stand only once.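 Following 48 hours of exposure in 96-well plates, responses at five concentrations were used to interpolate endpoints linearly. GI50 is the concentration that inhibits growth by half. TGI: concentration producing complete growth inhibition.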

Columns and labels:
Experiment in all cases: growth of human tumour cells (NCI), 48 h
786-0 renal = test system: 786-0 renal
NCI-H522 lung = test system: NCI-H522 lung
UACC-257 melanoma = test system: UACC-257 melanoma
T-47D breast = test system: T-47D breast
HS 578T breast = test system: HS 578T breast
SK-MEL-5 melanoma = test system: SK-MEL-5 melanoma
MALME-3M melanoma = test system: MALME-3M melanoma
DU-145 prostate = test system: DU-145 prostate
KM12 colon = test system: KM12 colon
U251 CNS = test system: U251 CNS

| SMILES | GI50 (786-0 renal) | TGI (786-0 renal) | GI50 (NCI-H522 lung) | TGI (NCI-H522 lung) | GI50 (UACC-257 melanoma) | TGI (UACC-257 melanoma) | GI50 (T-47D breast) | TGI (T-47D breast) | GI50 (HS 578T breast) | TGI (HS 578T breast) | GI50 (SK-MEL-5 melanoma) | TGI (SK-MEL-5 melanoma) | GI50 (MALME-3M melanoma) | TGI (MALME-3M melanoma) | GI50 (DU-145 prostate) | TGI (DU-145 prostate) | GI50 (KM12 colon) | TGI (KM12 colon) | GI50 (U251 CNS) | TGI (U251 CNS) |
| --- | --- | --- | --- | --- | --- | --- | --- | --- | --- | --- | --- | --- | --- | --- | --- | --- | --- | --- | --- | --- |
| N#Cc1ncc(/N=C/c2ccc(N(CCCl)CCCl)cc2)s1 | 4.52 µM | 20.3 µM | 29.8 µM | > 100 µM | 13.3 µM | 63 µM | 6.71 µM | > 100 µM | 63.1 µM | > 100 µM | 27.9 µM | > 100 µM | 30.8 µM | > 100 µM | 5.62 µM | 57.1 µM | 76.5 µM | > 100 µM | 18.6 µM | > 100 µM |
| c1ccc2[nH]c(-c3ccc(N4CCN(c5ccc(-c6nc7ccccc7[nH]6)cc5)CC4)cc3)nc2c1 | 36.9 µM | > 100 µM | > 100 µM | > 100 µM | > 100 µM | > 100 µM | 30.4 µM | > 100 µM | > 100 µM | > 100 µM | > 100 µM | > 100 µM | > 100 µM | > 100 µM | 37.5 µM | > 100 µM | 71.1 µM | > 100 µM | 41.3 µM | > 100 µM |
| CC1Oc2cc3c(-c4c(O)cc(O)c5c(O)c6c(cc45)OC(C)C(C)C6=O)c(O)cc(O)c3c(O)c2C(=O)C1C (centres undefined) | – | 1.21 µM | – | 1.63 µM | – | 1.68 µM | – | 1.41 µM | – | 0.459 µM | – | 0.461 µM | – | 1.13 µM | – | 10.7 µM | – | 1.51 µM | – | 0.404 µM |
| CC[C@](C)(O)C(=O)O[C@H]1C(=O)O[C@@H]2C[C@H]3C(C)=CC(=O)[C@@H](O)[C@]3(C)[C@H]3[C@@]4(O)OC[C@]32[C@@H]1[C@@H](C)[C@H]4O | – | 0.832 µM | 0.0296 µM | 0.148 µM | 0.142 µM | 0.841 µM and 0.218 µM | – | 3.78 µM | – | 4.44 µM | – | 0.136 µM | 0.0337 µM | 0.137 µM | – | 2.9 µM | 0.233 µM | 3.62 µM and 0.404 µM | – | 0.41 µM and 0.121 µM |
| CCOC(=O)c1c2c(n(CC(C)C)c1C)-c1nc[nH]c1C(=O)C2=O | 19.2 µM | 33.3 µM | 15.7 µM | 29.4 µM | 18.4 µM | 32.3 µM | 3.3 µM | 14.3 µM | 38.9 µM | > 100 µM | 16.2 µM | 30.2 µM | 21.1 µM | 36.6 µM | 16.1 µM | 29.6 µM | 16.9 µM | 31.2 µM | 14.2 µM | 27.2 µM |
| COc1ccc(Cn2nc(-c3cc(OC)c(OC)c(OC)c3)c3c2CCc2cnoc2-3)cc1OC | 6.34 µM | > 100 µM | 3.17 µM | > 100 µM | 34.6 µM | > 100 µM | 4.16 µM | 39.9 µM | 2.22 µM | 15.2 µM | 2.78 µM | 12 µM | 14.8 µM | > 100 µM | 13.2 µM | > 100 µM | 3.89 µM | 37.6 µM | 4.97 µM | > 100 µM |
| CCn1c(-c2nonc2N)nc2cncc(C(=O)N3CCNCC3)c21 | > 25 µM | > 25 µM | > 25 µM | > 25 µM | > 25 µM | > 25 µM | > 25 µM | > 25 µM | > 25 µM | > 25 µM | > 25 µM | > 25 µM | > 25 µM | > 25 µM | > 25 µM | > 25 µM | > 25 µM | > 25 µM | > 25 µM | > 25 µM |
| CN(C)CCNC(=O)c1cccn2c(=O)c3cc4ccccc4cc3nc12 | 0.11 µM | 14.1 µM | 0.182 µM | 0.856 µM | 0.268 µM | 1.14 µM | 0.417 µM | 19 µM | 0.153 µM | 1.76 µM | 0.131 µM | 0.476 µM | 0.116 µM | 0.617 µM | 0.103 µM | 0.391 µM | 0.161 µM | 1.41 µM | 0.114 µM | 18 µM |
| COc1ccc2c(c1)CCC1C2CCC2(C)C1CCC2(O)CNC(=O)CCCCC1CCSS1 (centres undefined) | 17.7 µM | 64 µM | 23.7 µM | > 100 µM | 31.9 µM | > 100 µM | 3.27 µM | 28.9 µM | 13.9 µM | > 100 µM | 7.15 µM | > 100 µM | > 100 µM | > 100 µM | 46.3 µM | > 100 µM | 2.26 µM | > 100 µM | 15.2 µM | 56.6 µM |
| CCN(CC)CCOc1ccc(C(=C(C)c2ccc(Cl)cc2)c2ccc(OCCN(CC)CC)cc2)cc1 | 0.597 µM | 1.12 µM | 0.591 µM | 1.25 µM | 0.592 µM | 1.17 µM | 0.565 µM | 1.25 µM | 0.71 µM | 1.85 µM | 0.592 µM | 1.06 µM | 0.563 µM | 1.09 µM | 1.09 µM | 3.47 µM | 0.666 µM | 1.37 µM | 0.582 µM | 1.15 µM |
| Cc1ccc2[nH]c(C(=O)NN3C(=O)CSC34CCCCC4C)c(-c3ccccc3)c2c1 (centres undefined) | 17.3 µM | 37.9 µM | 13.1 µM | 27.9 µM | 16.8 µM | 31.8 µM | 16.3 µM | 40 µM | 27.8 µM | 96.2 µM | 15.1 µM | 31.3 µM | 17.3 µM | 35.6 µM | 18.2 µM | 44.1 µM | 14.9 µM | 34.7 µM | 16.8 µM | 32.7 µM |
